Assay results taken from BindingDB's records for doi:10.1016/S0960-894X(97)10014-2 (1997).
pIC50: −log10 of the molar value.

Test: Inhibition of ADP induced platelet aggregation in human platelet-rich plasma (PRP)

Question: With `N=C(N)c1ccc(COc2ccc3c(c2)CCN(CCC(=O)O)C3=O)cc1` [3-[6-(4-Carbamimidoyl-benzyloxy)-1-oxo-3,4-dihydro-1H-isoquinolin-2-yl]-propionic acid] as the molecule, how does the pIC50 read?
Answer: The pIC50 was 6.38.

Test: Inhibition of ADP induced platelet aggregation in human platelet-rich plasma (PRP).

Question: With `COC(=O)c1ccc(C(CC(=O)O)N2CCc3cc(OCc4ccc(C(=N)N)cc4)ccc3C2=O)cc1` (stereo not drawn) [4-{1-[6-(4-Carbamimidoyl-benzyloxy)-1-oxo-3,4-dihydro-1H-isoquinolin-2-yl]-2-carboxy-ethyl}-benzoic acid methyl ester] as the molecule, how does the pIC50 read?
Answer: Its pIC50 is 6.66.

Question: With `N=C(N)c1ccc(COc2ccc3c(c2)CCN(C(CC(=O)O)c2ccccc2)C3=O)cc1` (stereo not drawn) [3-[6-(4-Carbamimidoyl-benzyloxy)-1-oxo-3,4-dihydro-1H-isoquinolin-2-yl]-3-phenyl-propionic acid] as the molecule, how does the pIC50 read?
Answer: The pIC50 was 6.70.

Question: With `COCCCC(CC(=O)O)N1CCc2cc(OCc3ccc(C(=N)N)cc3)ccc2C1=O` (stereo not drawn) [3-[6-(4-Carbamimidoyl-benzyloxy)-1-oxo-3,4-dihydro-1H-isoquinolin-2-yl]-6-methoxy-hexanoic acid] as the molecule, how does the pIC50 read?
Answer: Its pIC50 is 6.22.

Question: With `CCCC(CC(=O)O)N1CCc2cc(OCc3ccc(C(=N)N)cc3)ccc2C1=O` (stereo not drawn) [3-[6-(4-Carbamimidoyl-benzyloxy)-1-oxo-3,4-dihydro-1H-isoquinolin-2-yl]-hexanoic acid] as the molecule, how does the pIC50 read?
Answer: Its pIC50 is 6.64.

Question: With `CCCCC(CC(=O)O)N1CCc2cc(OCc3ccc(C(=N)N)cc3)ccc2C1=O` (stereo not drawn) [3-[6-(4-Carbamimidoyl-benzyloxy)-1-oxo-3,4-dihydro-1H-isoquinolin-2-yl]-heptanoic acid] as the molecule, how does the pIC50 read?
Answer: The pIC50 was 6.22.

Question: With `CCCCCC(CC(=O)O)N1CCc2cc(OCc3ccc(C(=N)N)cc3)ccc2C1=O` (stereo not drawn) [3-[6-(4-Carbamimidoyl-benzyloxy)-1-oxo-3,4-dihydro-1H-isoquinolin-2-yl]-octanoic acid] as the molecule, how does the pIC50 read?
Answer: Its pIC50 is 6.24.

Question: With `CCOCCCC(CC(=O)O)N1CCc2cc(OCc3ccc(C(=N)N)cc3)ccc2C1=O` (stereo not drawn) [3-[6-(4-Carbamimidoyl-benzyloxy)-1-oxo-3,4-dihydro-1H-isoquinolin-2-yl]-6-ethoxy-hexanoic acid] as the molecule, how does the pIC50 read?
Answer: Its pIC50 is 6.33.

Question: With `COc1ccc(C(CC(=O)O)N2CCc3cc(OCc4ccc(C(=N)N)cc4)ccc3C2=O)cc1` (stereo not drawn) [3-[6-(4-Carbamimidoyl-benzyloxy)-1-oxo-3,4-dihydro-1H-isoquinolin-2-yl]-3-(4-methoxy-phenyl)-propionic acid] as the molecule, how does the pIC50 read?
Answer: The pIC50 was 6.59.

Question: With `N=C(N)c1ccc(COc2ccc3c(c2)CCN(CC(=O)O)C3=O)cc1` [[6-(4-Carbamimidoyl-benzyloxy)-1-oxo-3,4-dihydro-1H-isoquinolin-2-yl]-acetic acid] as the molecule, how does the pIC50 read?
Answer: Its pIC50 is 4.52.

Question: With `COCCOCC(CC(=O)O)N1CCc2cc(OCc3ccc(C(=N)N)cc3)ccc2C1=O` (stereo not drawn) [3-[6-(4-Carbamimidoyl-benzyloxy)-1-oxo-3,4-dihydro-1H-isoquinolin-2-yl]-4-(2-methoxy-ethoxy)-butyric acid] as the molecule, how does the pIC50 read?
Answer: Its pIC50 is 6.17.

Question: With `CCC(CC(=O)O)N1CCc2cc(OCc3ccc(C(=N)N)cc3)ccc2C1=O` (stereo not drawn) [3-[6-(4-Carbamimidoyl-benzyloxy)-1-oxo-3,4-dihydro-1H-isoquinolin-2-yl]-pentanoic acid] as the molecule, how does the pIC50 read?
Answer: Its pIC50 is 6.52.

Question: With `CCCCCCC(CC(=O)O)N1CCc2cc(OCc3ccc(C(=N)N)cc3)ccc2C1=O` (stereo not drawn) [3-[6-(4-Carbamimidoyl-benzyloxy)-1-oxo-3,4-dihydro-1H-isoquinolin-2-yl]-nonanoic acid] as the molecule, how does the pIC50 read?
Answer: The pIC50 was 5.52.
